Test systems include IGROV1 ovarian; HT29 colon; COLO 205 colon; CAKI-1 renal; OVCAR-3 ovarian; MOLT-4 leukemia; SF-539 CNS; SK-MEL-28 melanoma; SK-MEL-2 melanoma; SK-MEL-5 melanoma.
Common to all, as to test: DTP human tumour cell line panel, 48 h

“And” between values parts separate entries of the source, which are not always exact repeats. Equal entries are not always repeated.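 Five concentrations, 48 hours, 96-well plates. GI50 marks 50% less growth. TGI denotes the concentration required for complete inhibition of growth.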 Where only a bound is given, the exact number is not on record here.

As for `O=S(=O)(C1=CC(S(=O)(=O)c2ccccc2)COC1)c1ccccc1` (configuration not stated), the total growth inhibition concentration (TGI) with IGROV1 ovarian, in the assay with HT29 colon, in the assay on COLO 205 colon, in the assay with CAKI-1 renal, with OVCAR-3 ovarian and in the assay with MOLT-4 leukemia was more than 100 µM in each case. Moreover, the concentration for total growth inhibition (TGI) in the assay on SF-539 CNS, in the assay with SK-MEL-28 melanoma and in the assay on SK-MEL-2 melanoma was more than 100 µM each time.

Take `CCCCCCCCSC(=O)NCCCC`: the concentration for total growth inhibition (TGI) is more than 100 µM in the assay with IGROV1 ovarian; 46.6 µM with SK-MEL-5 melanoma; 66.6 µM in the assay on HT29 colon; more than 100 µM with COLO 205 colon; more than 100 µM with CAKI-1 renal; more than 100 µM with OVCAR-3 ovarian. For the same molecule, the TGI with MOLT-4 leukemia was 87 µM; with SF-539 CNS it was more than 100 µM; in the assay with SK-MEL-28 melanoma, 88.7 µM; with SK-MEL-2 melanoma, 45.6 µM.

Take `C/C(=C1/N=C(c2cc([N+](=O)[O-])ccc2Cl)N(c2ccc(Br)cc2)C1=O)c1ccc(N(CCC#N)CCC#N)cc1C`: the TGI in the assay with IGROV1 ovarian was more than 100 µM; in the assay with SK-MEL-5 melanoma, more than 100 µM; in the assay with HT29 colon, more than 100 µM; with COLO 205 colon it was 97 µM; in the assay on CAKI-1 renal it was more than 100 µM; in the assay on OVCAR-3 ovarian it was 99.7 µM. In addition, the total growth inhibition concentration (TGI) with MOLT-4 leukemia, in the assay on SF-539 CNS, in the assay with SK-MEL-28 melanoma and with SK-MEL-2 melanoma was more than 100 µM in each case.

For the molecule `Cc1ccccc1/C=C/c1csnn1`, the TGI with IGROV1 ovarian, in the assay on SK-MEL-5 melanoma, in the assay with HT29 colon, in the assay on COLO 205 colon, in the assay on CAKI-1 renal and with OVCAR-3 ovarian was more than 100 µM in each case. The TGI with MOLT-4 leukemia, in the assay on SF-539 CNS, in the assay on SK-MEL-28 melanoma and in the assay on SK-MEL-2 melanoma was more than 100 µM in each case.

With `Cc1noc2cccc(O)c12`, the TGI in the assay with IGROV1 ovarian, with SK-MEL-5 melanoma, in the assay with HT29 colon, in the assay on COLO 205 colon, in the assay on CAKI-1 renal and with OVCAR-3 ovarian was more than 100 µM each time. Further, the total growth inhibition concentration (TGI) in the assay on MOLT-4 leukemia, with SF-539 CNS, in the assay on SK-MEL-28 melanoma and in the assay with SK-MEL-2 melanoma was more than 100 µM each time.

Regarding `CC12Nc3ccccc3C1=C(c1ccccc1)CC1C(=O)OC(=O)C12` (configuration not stated), the concentration for total growth inhibition (TGI) with IGROV1 ovarian, in the assay with SK-MEL-5 melanoma, in the assay on HT29 colon, with COLO 205 colon, in the assay on OVCAR-3 ovarian and with MOLT-4 leukemia was more than 100 µM each time. The TGI in the assay on SF-539 CNS, in the assay on SK-MEL-28 melanoma and in the assay on SK-MEL-2 melanoma was more than 100 µM in each case.

Take `Nc1cn(C2OC(CC(c3ccccc3)(c3ccccc3)c3ccccc3)C(O)C2O)c(=O)[nH]c1=O` (configuration not stated): the TGI in the assay with IGROV1 ovarian worked out at 70.7 µM; in the assay with SK-MEL-5 melanoma, 37.4 µM; with HT29 colon it was 58.8 µM; in the assay on COLO 205 colon, 30.3 µM; in the assay on CAKI-1 renal it was 57.1 µM; in the assay with OVCAR-3 ovarian it was 37.9 µM. For the same molecule, the TGI in the assay on MOLT-4 leukemia is 63.4 µM; in the assay on SK-MEL-28 melanoma, 81.7 µM; in the assay with SK-MEL-2 melanoma, more than 100 µM.

Consider `CC(=O)Nc1ccccc1-c1nc2ccccc2nc1-c1ccccc1`, for which the concentration for total growth inhibition (TGI) with IGROV1 ovarian, in the assay on HT29 colon, in the assay with COLO 205 colon, with CAKI-1 renal, with OVCAR-3 ovarian and with MOLT-4 leukemia was more than 100 µM in each case. The TGI with SF-539 CNS, in the assay with SK-MEL-28 melanoma and with SK-MEL-2 melanoma was more than 100 µM in each case.

With `CCOC(=O)c1oc2c(OC)ccc3c2c1CCC3`, the total growth inhibition concentration (TGI) in the assay with IGROV1 ovarian, in the assay on SK-MEL-5 melanoma, in the assay on HT29 colon, in the assay on COLO 205 colon, in the assay with OVCAR-3 ovarian and with MOLT-4 leukemia was more than 100 µM each time. Also, the total growth inhibition concentration (TGI) in the assay on SF-539 CNS, with SK-MEL-28 melanoma and in the assay on SK-MEL-2 melanoma was more than 100 µM each time.

Take `CC(=O)N[C@H](C)[C@@H](O)[C@@H](C)[C@@H]1OC(=O)/C=C/C=C(C)\C=C\[C@]2(C)C[C@@H](NS(C)(=O)=O)C=C[C@@H]2/C=C(C)/C=C/[C@H]1C`: the GI50 was 0.0185 µM and 0.014 µM with IGROV1 ovarian; 0.00313 µM and 0.00786 µM with SK-MEL-5 melanoma; 0.00459 µM and 0.00435 µM in the assay on HT29 colon; 0.00692 µM and 0.0199 µM in the assay with COLO 205 colon; more than 43.5 µM in the assay on MOLT-4 leukemia; 0.00357 µM and 0.00623 µM in the assay on SF-539 CNS. Further, the GI50 in the assay on SK-MEL-28 melanoma was 0.008 µM and 0.0222 µM; in the assay with SK-MEL-2 melanoma, 3.88 µM and 24.1 µM. Also, the concentration for total growth inhibition (TGI) in the assay with IGROV1 ovarian was more than 43.5 µM; in the assay on SK-MEL-5 melanoma, 0.0151 µM and 0.0256 µM; with HT29 colon, more than 43.5 µM; with COLO 205 colon, more than 43.5 µM; in the assay with OVCAR-3 ovarian, more than 43.5 µM; with MOLT-4 leukemia it was more than 43.5 µM. Further, the TGI with SF-539 CNS, with SK-MEL-28 melanoma and in the assay with SK-MEL-2 melanoma was more than 43.5 µM in each case.

The term TGI denotes the concentration giving total growth inhibition. One may read the GI50 as the concentration giving 50% growth inhibition.
